According to patent US20210255193A1, “LYSINE REACTIVE PROBES AND USES THEREOF” (The Scripps Research Institute, priority 2017, published 2021):

Assays:
Test in all cases: competitive isoTOP-ABPP
Type in all cases: binding
[1] = target: T1, AP1G1 AP-1 complex subunit gamma-1 (Homo sapiens, UniProt O43747); details: 50 uM, in vitro; for isoTOP-ABPP ratio (R) at liganded lysine O43747_K214: sol, 231; for isoTOP-ABPP reactivity ratio at lysine O43747_K214 / R value (DMSO/fragment) for probe 1 labeling: 231 sol; for R value (DMSO/fragment) for probe 1 labeling: O43747_K214
T1 construct: isoTOP-ABPP experiments performed in cell lysates (in vitro); endogenous in cells; host or cells: MDA-MB-231 soluble lysate
T1 sequence (O43747 1-822): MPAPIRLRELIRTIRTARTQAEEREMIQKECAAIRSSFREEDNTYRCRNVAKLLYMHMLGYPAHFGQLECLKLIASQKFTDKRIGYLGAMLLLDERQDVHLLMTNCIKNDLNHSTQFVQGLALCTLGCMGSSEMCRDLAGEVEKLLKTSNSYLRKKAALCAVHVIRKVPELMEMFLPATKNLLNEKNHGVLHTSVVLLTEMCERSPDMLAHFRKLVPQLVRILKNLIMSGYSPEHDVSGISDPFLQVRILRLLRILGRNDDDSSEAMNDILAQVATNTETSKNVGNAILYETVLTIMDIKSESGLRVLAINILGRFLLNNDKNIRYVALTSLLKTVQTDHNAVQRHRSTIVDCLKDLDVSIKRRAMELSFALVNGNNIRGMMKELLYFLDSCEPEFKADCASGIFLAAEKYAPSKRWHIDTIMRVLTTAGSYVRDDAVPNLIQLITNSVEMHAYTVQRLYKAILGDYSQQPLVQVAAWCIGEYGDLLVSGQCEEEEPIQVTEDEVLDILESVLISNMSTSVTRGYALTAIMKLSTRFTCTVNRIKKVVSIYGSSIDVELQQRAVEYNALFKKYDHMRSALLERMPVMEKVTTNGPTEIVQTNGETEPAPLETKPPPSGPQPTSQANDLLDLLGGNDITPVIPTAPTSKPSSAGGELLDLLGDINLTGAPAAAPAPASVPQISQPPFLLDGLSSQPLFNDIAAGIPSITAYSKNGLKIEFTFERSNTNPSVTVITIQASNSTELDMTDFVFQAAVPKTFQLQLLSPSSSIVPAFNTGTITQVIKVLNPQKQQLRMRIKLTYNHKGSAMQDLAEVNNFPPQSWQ
Summary of the method: (§1)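 Probe: STP-alkyne, 0.1 mM, 1 h RT, after fragment pretreatment of lysate (esters 50 μM; guanidinylators 100 μM). Tags: light = compound, heavy = DMSO, via CuAAC. Replicates averaged if SD <60% of mean; otherwise lowest ratio used when any R <4.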

FAH Fumarylacetoacetase = target: T2, FAH Fumarylacetoacetase (Homo sapiens, UniProt P16930); details: 50 uM, in vitro; for isoTOP-ABPP ratio (R) at liganded lysine P16930_K241: sol, 231; for isoTOP-ABPP reactivity ratio at lysine P16930_K241 / R value (DMSO/fragment) for probe 1 labeling: 231 sol; for R value (DMSO/fragment) for probe 1 labeling: P16930_K241
T2 construct: isoTOP-ABPP experiments performed in cell lysates (in vitro); endogenous in cells; host or cells: soluble proteome of human cancer cell lines (MDA-MB-231; Ramos and Jurkat also prepared)
T2 sequence (P16930 1-419): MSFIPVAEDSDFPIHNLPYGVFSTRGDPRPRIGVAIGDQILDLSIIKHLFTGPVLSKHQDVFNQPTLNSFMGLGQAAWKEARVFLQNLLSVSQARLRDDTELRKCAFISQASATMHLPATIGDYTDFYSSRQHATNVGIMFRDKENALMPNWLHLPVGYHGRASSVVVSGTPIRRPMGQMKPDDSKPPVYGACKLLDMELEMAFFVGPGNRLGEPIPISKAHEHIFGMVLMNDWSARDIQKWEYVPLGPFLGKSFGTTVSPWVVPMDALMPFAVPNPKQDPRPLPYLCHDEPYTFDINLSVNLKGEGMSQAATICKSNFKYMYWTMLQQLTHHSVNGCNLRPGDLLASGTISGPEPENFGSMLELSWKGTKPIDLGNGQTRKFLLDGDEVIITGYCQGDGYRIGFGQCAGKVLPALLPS
Summary of the method: as §1

[2] = target: T3, XRCC6 X-ray repair cross-complementing protein 6 (Homo sapiens, UniProt P12956); details: 50 uM, in vitro; for isoTOP-ABPP ratio (R) at liganded lysine P12956_K351: sol, 231; for isoTOP-ABPP reactivity ratio at lysine P12956_K351 / R value (DMSO/fragment) for probe 1 labeling: 231 sol; for R value (DMSO/fragment) for probe 1 labeling: P12956_K351
T3 construct: isoTOP-ABPP experiments performed in cell lysates (in vitro); endogenous in cells; host or cells: soluble proteome of human cancer cell lines (MDA-MB-231; Ramos and Jurkat also prepared)
T3 sequence (P12956 2-609 limits assumed): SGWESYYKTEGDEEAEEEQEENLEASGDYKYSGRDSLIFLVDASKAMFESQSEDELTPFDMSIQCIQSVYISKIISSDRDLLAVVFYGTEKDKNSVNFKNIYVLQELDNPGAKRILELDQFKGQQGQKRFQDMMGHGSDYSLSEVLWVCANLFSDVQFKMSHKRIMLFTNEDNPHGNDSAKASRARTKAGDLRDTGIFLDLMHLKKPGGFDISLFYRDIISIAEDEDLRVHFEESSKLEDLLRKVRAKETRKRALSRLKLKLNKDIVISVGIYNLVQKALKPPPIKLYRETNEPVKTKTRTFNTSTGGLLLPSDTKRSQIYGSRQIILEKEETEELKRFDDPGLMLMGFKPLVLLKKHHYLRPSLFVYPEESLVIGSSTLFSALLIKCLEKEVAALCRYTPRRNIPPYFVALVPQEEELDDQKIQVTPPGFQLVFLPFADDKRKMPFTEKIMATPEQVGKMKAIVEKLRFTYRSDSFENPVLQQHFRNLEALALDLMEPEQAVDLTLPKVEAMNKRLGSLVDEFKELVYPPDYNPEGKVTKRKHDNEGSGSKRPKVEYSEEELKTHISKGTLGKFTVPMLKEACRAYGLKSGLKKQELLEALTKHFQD
T3 sequence (P13010 2-732 partner limits assumed): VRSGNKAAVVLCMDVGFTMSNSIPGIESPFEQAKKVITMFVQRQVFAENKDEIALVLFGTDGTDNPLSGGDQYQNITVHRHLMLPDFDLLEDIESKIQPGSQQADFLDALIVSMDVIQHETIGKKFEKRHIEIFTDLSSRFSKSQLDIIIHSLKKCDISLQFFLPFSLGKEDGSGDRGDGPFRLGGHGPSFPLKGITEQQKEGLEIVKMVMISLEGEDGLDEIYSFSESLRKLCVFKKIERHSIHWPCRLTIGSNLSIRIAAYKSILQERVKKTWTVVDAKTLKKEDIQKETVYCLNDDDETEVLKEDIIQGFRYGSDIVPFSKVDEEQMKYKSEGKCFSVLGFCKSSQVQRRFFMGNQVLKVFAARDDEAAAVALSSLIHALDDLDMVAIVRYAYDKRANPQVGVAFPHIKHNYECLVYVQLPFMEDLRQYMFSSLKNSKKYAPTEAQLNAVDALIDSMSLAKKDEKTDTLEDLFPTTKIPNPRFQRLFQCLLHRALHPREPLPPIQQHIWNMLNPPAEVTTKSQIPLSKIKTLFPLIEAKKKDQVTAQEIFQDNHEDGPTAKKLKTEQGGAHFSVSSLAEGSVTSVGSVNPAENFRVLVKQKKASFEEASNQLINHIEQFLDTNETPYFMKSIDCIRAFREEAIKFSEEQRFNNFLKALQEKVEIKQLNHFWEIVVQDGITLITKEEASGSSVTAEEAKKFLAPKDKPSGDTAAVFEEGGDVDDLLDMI
Summary of the method: as §1

| Compound | isoTOP-ABPP ratio (R) at liganded lysine O43747_K214 [1] | isoTOP-ABPP ratio (R) at liganded lysine P16930_K241 (FAH Fumarylacetoacetase) | isoTOP-ABPP ratio (R) at liganded lysine P12956_K351 [2] | isoTOP-ABPP reactivity ratio at lysine O43747_K214 [1] | isoTOP-ABPP reactivity ratio at lysine P16930_K241 (FAH Fumarylacetoacetase) | isoTOP-ABPP reactivity ratio at lysine P12956_K351 [2] | other results |
| --- | --- | --- | --- | --- | --- | --- | --- |
| O=C(Oc1ccc([N+](=O)[O-])cc1[N+](=O)[O-])c1ccc2ccccc2n1 [fragment 35, 2,4-Dinitrophenyl quinoline-2-carboxylate] | 1.0 | 3.4 | 1.5 |  |  |  |  |
| CCn1cc(C(=O)Oc2c(F)c(F)c(F)c(F)c2F)c(=O)c2ccc(C)nc21 [fragment 28, Pentafluorophenyl 1-ethyl-7-methyl-4-oxo-1,4-dihydro-1,8-naphthyridine-3-carboxylate] |  |  |  | 1.0 | 2.5 | 1.9 |  |
| O=C(Oc1c(F)c(F)c(F)c(F)c1F)c1cc(C(F)(F)F)cc(C(F)(F)F)c1 [fragment 21, Pentafluorophenyl 3,5-bis(trifluoromethyl)benzoate] |  |  |  |  |  |  | R value (DMSO/fragment) for probe 1 labeling [1]: 0.9; R value (DMSO/fragment) for probe 1 labeling (FAH Fumarylacetoacetase): 2.0; R value (DMSO/fragment) for probe 1 labeling [2]: 1.4 |
| CC(C)(C)OC(=O)NCCCC(=O)Oc1ccc([N+](=O)[O-])cc1[N+](=O)[O-] [fragment 41, 2,4-Dinitrophenyl 4-((tert-butoxycarbonyl)amino)butanoate] | 1.0 | 1.4 | 1.6 |  |  |  |  |
| O=C(Oc1c(F)c(F)c(F)c(F)c1F)C1CCN(C(=O)OCc2ccccc2)CC1 [fragment 24, 1-Benzyl 4-(pentafluorophenyl) piperidine-1,4-dicarboxylate] |  |  |  | 1.0 | 1.1 | 1.3 |  |
| O=C(Oc1c(F)c(F)c(F)c(F)c1F)c1ccc2ccccc2n1 [fragment 25, Pentafluorophenyl quinoline-2-carboxylate] |  |  |  | 1.0 | 5.2 | 1.6 |  |
| Cn1cc(CC(=O)Oc2ccc([N+](=O)[O-])cc2[N+](=O)[O-])c2ccccc21 [fragment 32, 2,4-Dinitrophenyl 2-(1-methyl-1H-indol-3-yl)acetate] |  |  |  | 6.6 | 2.2 | 13.4 |  |
| COc1cc(CCC(=O)Oc2c(F)c(F)c(F)c(F)c2F)cc(OC)c1OC [fragment 23, Pentafluorophenyl 3-(3,4,5-trimethoxyphenyl)propanoate] |  |  |  |  |  |  | R value (DMSO/fragment) for probe 1 labeling [1]: 1.1; R value (DMSO/fragment) for probe 1 labeling (FAH Fumarylacetoacetase): 2.8; R value (DMSO/fragment) for probe 1 labeling [2]: 1.2 |
| O=C(Oc1ccc([N+](=O)[O-])cc1[N+](=O)[O-])c1ccc(Oc2ccccc2)cc1 [fragment 39, 2,4-Dinitrophenyl 4-phenoxybenzoate] | 0.8 | 1.2 | 1.6 |  |  |  |  |
